Test results published in patent publication US20160113931A1, “Method of treating and/or preventing neurodegenerative diseases” (University of Macau, priority 2014, published 2016).
“Also recorded” adds a separate entry of the source.

Columns and labels:
primary cortical neurons = test: MPP+-induced neuronal death in primary cortical neurons (LDH release); format: cell-based, rat; details: 2 h pre-treatment, 200 μM MPP+ 24 h
Experimental: Primary culture of cortical neurons was prepared from embryonic day 18±0.5 Sprague-Dawley rats. One day after seeding, primary cortical neurons were treated with 10 and 30 μM BHDPC for 14 days. Fourteen days following BHDPC treatment, primary cortical neurons cultured on glass coverslips (Thermo Scientific) were fixed with 4% paraformaldehyde for 15 min. Following fixation, neurons were permeabilized with 0.1% Triton X-100 in Tris-buffered saline for 7 min, and blocked with 4% bovine serum albumin and 2% goat serum for 1 h. α-tubulin and MAP2 were incubated at 1:400 dilution for 1 h at room temperature and overnight at 4° C. respectively. Following primary antibody incubation, neurons were incubated with Alexa Flour 488 or 568 secondary antibodies (anti-rabbit or anti-mouse) at 1:400 dilution for 1 h at room temperature. […] Fluorescence intensity was measured using Image J.
Cell cytotoxicity was also determined by measuring the activity of LDH released into the incubation medium when cellular membranes were damaged. […] After treatment, the released LDH activity in the medium was measured according to the instructions of the Cytotoxicity Detection Kit (Roche Applied Science, Mannheim, Germany). Absorbance at 490 nm was measured using SpectraMax M5. […]
LDH release was measured at 24 hours after the MPP^+ challenge.

SH-SY5Y cells = test: MPP+-induced cytotoxicity in SH-SY5Y cells (MTT assay); format: cell-based, human; details: 30 μM, 2 h pre-treatment, 1 mM MPP+ 24 h
Experimental: Cells were pre-treated with BHDPC (3, 10 and 30 μM) for 2 h and then incubated with or without 1 mM MPP^+ for further 24 h. Cell viability was measured by the MTT assay.
The human neuroblastoma SH-SY5Y cells were purchased from America Tissue Type Collection. The cells were maintained in DMEM medium supplemented with 10% fetal bovine serum and penicillin/streptomycin (100 U/mL; 100 μg/mL) in a 37° C., 5% CO2 incubator. All experiments were carried out 48 hours after the cells were seeded.
(§1) The percentage of surviving cells was estimated by determining the activity of mitochondrial dehydrogenases with 3(4,5-dimethylthiazol-2-yl)-2,5-diphenyltetrazolium bromide (MTT) assay. After drug treatment, cells were incubated at 37° C. for 4 h in 0.5 mg/mL MTT solution. The medium was then removed, and 100 μL of DMSO was added to each well to dissolve the violet formazan crystals. The absorbance of the samples was measured at a wavelength of 570 nm with 655 nm as a reference wavelength. All values were normalized to the control groups.
To test the neuroprotective effects of BHDPC, SH-SY5Y cells were pre-treated with gradually increasing concentrations of BHDPC for 2 h and then treated with 1 mM MPP^+ for 24 hours. Cell viability was measured using the MTT assay.

zebrafish = test: MPTP-induced deficit of locomotion behavior in zebrafish larvae; format: in vivo, Danio rerio
Experimental: Three dpf zebrafish embryos were co-incubated with 10 μM MPTP and BHDPC at the indicated concentrations for 96 hours, and zebrafish larval co-treated with MPTP and 150 μM L-dopa was used as positive control. After treatment, zebrafish were collected to perform locomotion behavior test using Viewpoint Zebrabox system and total distances travelled in 10 min were calculated.
The AB strain of wild type zebrafish (Danio rerio) was maintained as described in the Zebrafish Handbook. Zebrafish were staged by days post fertilization […]. For breeding, groups of male and female (3:2) adult zebrafish were placed in 10-L plastic aquarium equipped with spawning nets in the evening. In the following morning, eggs were collected from the breeding group tanks. Normally developed fertilized eggs were selected under a stereomicroscope for further studies. The MPTP manipulation was performed with appropriate safety precautions and all MPTP-containing water was bleached.
In addition, MPTP markedly altered the swimming behavior of the zebrafish as a consequence of DA neuronal injury. […] BHDPC ameliorated MPTP-induced deficit of swimming behavior. At the same condition, MPTP-induced deficit of swimming behavior were rescued by positive controls, levodopa (L-dopa) (FIG. 16).

[1] = system: oligodendroglial progenitor cells (OPCs); test: LPS-induced OPC death (MTT assay); format: cell-based, rat; details: 30 μM BHDPC 2 h, LPS 24 h
Experimental: OPCs were incubated with 30 μM BHDPC or 0.1% DMSO (vehicle control) for 2 h followed by the addition or not of 200 μM H2O2 for a further 6 h (FIG. 11A) or LPS (FIG. 11B) for 24 h.
as §1
Purified OPC cultures were prepared as described. In brief, primary rat mixed glial cell cultures were isolated from whole brains of postnatal day (P) 2 rats, dissociated into single cells, and cultured into poly-D-lysine (PDL) coated T75 tissue culture flasks. Plating medium consisted of Dulbecco's modified Eagle's medium (DMEM, Invitrogen, Carlsbad, Calif.) supplemented with 10% fetal bovine serum (FBS; Invitrogen, Carlsbad, Calif.), […]. Tissue cultures were maintained at 37° C. in a humidified 5% CO2 incubator, and medium was exchanged every 3 days. […]

SMILES: COc1cc(C2C(C(=O)OCc3ccccc3)=C(C)Nc3nnnn32)ccc1O (centres unmarked) [BHDPC, benzyl 7-(4-hydroxy-3-methoxyphenyl)-5-methyl-4,7-dihydrotetrazolo[1,5-a]pyrimidine-6-carboxylate]
- MPP+-induced neuronal death (LDH release) (primary cortical neurons): prevented MPP^+-induced neuronal death
- MPP+-induced neuronal death (cell viability, MTT) (SH-SY5Y cells): prevented MPP^+-induced dopaminergic neuronal death
- swimming behaviour of normal zebrafish larvae (zebrafish; BHDPC treatment alone): notably altered
- MPTP-induced deficit of swimming behavior (total distance travelled in 10 min) (zebrafish; co-incubated with 10 μM MPTP, 96 hours, 3 dpf): ameliorated; also recorded: attenuated
- LPS-induced cell death [1]: reduced LPS-induced cell death
